Test results taken from patent US20240150377A1, “MODULATORS OF CYSTIC FIBROSIS TRANSMEMBRANE CONDUCTANCE REGULATOR” (VERTEX PHARMACEUTICALS INCORPORATED, priority 2020, published 2024).
Like-named read-outs stand apart in the source and are kept apart here. Values belong to the compound of their own block, whether it stands above or below them.

Target: T1, CFTR (Homo sapiens, UniProt P13569, DEL508-508)
T1 construct: endogenous in cells; host or cells: primary human bronchial epithelial cells from CF subjects (F508del/MF-HBE), differentiated at air-liquid interface
T1 sequence (P13569 with tags, fused parts or gaps DEL508-508): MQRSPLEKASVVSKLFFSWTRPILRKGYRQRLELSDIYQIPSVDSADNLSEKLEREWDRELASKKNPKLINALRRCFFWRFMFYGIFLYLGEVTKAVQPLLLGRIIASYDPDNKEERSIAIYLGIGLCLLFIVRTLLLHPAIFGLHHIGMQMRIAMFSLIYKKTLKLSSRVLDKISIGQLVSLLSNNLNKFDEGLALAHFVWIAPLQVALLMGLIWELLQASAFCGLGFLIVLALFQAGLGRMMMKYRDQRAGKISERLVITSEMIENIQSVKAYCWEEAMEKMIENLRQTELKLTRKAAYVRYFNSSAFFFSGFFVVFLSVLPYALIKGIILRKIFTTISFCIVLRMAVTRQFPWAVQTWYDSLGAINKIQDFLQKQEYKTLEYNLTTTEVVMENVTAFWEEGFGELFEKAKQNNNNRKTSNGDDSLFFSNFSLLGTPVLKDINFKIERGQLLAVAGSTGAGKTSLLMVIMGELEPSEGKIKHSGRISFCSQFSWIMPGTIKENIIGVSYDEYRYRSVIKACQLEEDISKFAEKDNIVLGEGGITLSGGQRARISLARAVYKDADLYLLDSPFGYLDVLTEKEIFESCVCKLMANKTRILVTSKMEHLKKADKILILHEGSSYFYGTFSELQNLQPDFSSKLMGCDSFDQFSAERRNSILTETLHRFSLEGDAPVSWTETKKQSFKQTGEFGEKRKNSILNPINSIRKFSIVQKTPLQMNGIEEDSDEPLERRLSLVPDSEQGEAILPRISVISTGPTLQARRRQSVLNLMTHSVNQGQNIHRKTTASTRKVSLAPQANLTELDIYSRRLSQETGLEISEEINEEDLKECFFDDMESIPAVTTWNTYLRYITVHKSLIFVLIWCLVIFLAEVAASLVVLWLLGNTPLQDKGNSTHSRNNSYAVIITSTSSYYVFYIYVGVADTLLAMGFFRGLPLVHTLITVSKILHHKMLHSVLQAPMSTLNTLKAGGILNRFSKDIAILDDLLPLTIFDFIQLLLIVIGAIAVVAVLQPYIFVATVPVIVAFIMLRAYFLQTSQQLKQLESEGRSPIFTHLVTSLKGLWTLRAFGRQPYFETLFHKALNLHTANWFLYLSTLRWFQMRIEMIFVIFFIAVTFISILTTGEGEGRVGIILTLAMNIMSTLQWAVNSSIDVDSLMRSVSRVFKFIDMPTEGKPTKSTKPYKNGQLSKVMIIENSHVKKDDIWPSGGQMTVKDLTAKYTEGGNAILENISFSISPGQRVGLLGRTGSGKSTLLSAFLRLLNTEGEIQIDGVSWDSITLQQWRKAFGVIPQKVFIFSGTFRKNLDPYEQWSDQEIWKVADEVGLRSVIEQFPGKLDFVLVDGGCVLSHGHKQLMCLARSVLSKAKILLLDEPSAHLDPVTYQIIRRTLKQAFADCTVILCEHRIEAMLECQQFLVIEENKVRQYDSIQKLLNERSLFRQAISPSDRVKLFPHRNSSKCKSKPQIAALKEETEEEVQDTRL
Experiment: HBE assay: Ussing chamber assay of CFTR-mediated short-circuit currents
Type: cell-based
Outline: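 CFTR-mediated Isc (μA/cm²) equals the peak response to apical 20 μM forskolin minus the residual after a 20 μM each BPO/GlyH-101/CFTR inhibitor 172 cocktail, recorded in Ussing chambers at Vhold 0 mV, 37 °C, pH 7.4, with 30 μM apical amiloride. Cells were F508del/MF HBE cultures preincubated 18-24 h with corrector (concentration range or 10 μM) plus 1 μM ivacaftor in 20% human serum.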

[1] = Table 11, read-out: HBE Max Activity (%)
[2] = Table 10, read-out: HBE Max activity (%)
[3] = HBE assay, read-out: HBE Max activity (%)
[4] = Table 13, at 10 μM, read-out: HBE Activity at 10 μM (%)
[5] = HBE assay, 10 μM, read-out: HBE Activity at 10 μM (%)
[6] = Table 12, read-out: HBE Max Activity (%)
[7] = Table 13, read-out: HBE Max Activity (%)
[8] = Table 12, at 10 μM, read-out: HBE Activity at 10 μM (%)

EC50 (Table 12, read-out: HBE EC50): < 1 µM
Structure (SMILES): Cc1cccc(C)c1-c1cc2nc(n1)NS(=O)(=O)c1cccc(c1)C(=O)N(Cc1cccc(N3CCCC3C(C)C)n1)[C@H](CC(C)(C)C)CO2 (some centres unmarked) [Compound 548]

EC50 (Table 11, read-out: HBE EC50): < 1 µM
Emax [1]: > 60%
Structure (SMILES): COCCN(C)c1ccnc(CN2C(=O)c3cccc(c3)S(=O)(=O)Nc3nc(cc(-c4c(C)cccc4C)n3)OC[C@H]2CC(C)(C)C)n1 [Compound 657]

Structure (SMILES): Cc1cccc(C)c1-c1cc2nc(n1)NS(=O)(=O)c1cccc(c1)C(=O)N(Cc1cccc(Oc3ccccc3)n1)[C@H](CC(C)(C)C)CO2 [Compound 126, (11R)-6-(2,6-Dimethylphenyl)-11-(2,2-dimethylpropyl)-2,2-dioxo-12-[(6-phenoxy-2-pyridyl)methyl]-9-oxa-2λ^6-thia-3,5,12,19-tetrazatricyclo[12.3.1.14,8]nonadeca-1(18),4(19),5,7,14,16-hexaen-13-one]
EC50 (HBE EC50 (μM), Table 10): < 1 µM
Emax (read-out: HBE Max activity (%)): > 60%

EC50 (Table 10, read-out: HBE EC50): 1 to 3 µM
Emax [2]: > 60%
Structure (SMILES): Cc1cccc(C)c1-c1cc2nc(n1)NS(=O)(=O)c1cccc(c1)C(=O)N(Cc1ccc(C3CCCCC3)cn1)[C@H](CC(C)(C)C)CO2 [Compound 50, (11R)-12-[(5-Cyclohexyl-2-pyridyl)methyl]-6-(2,6-dimethylphenyl)-11-(2,2-dimethylpropyl)-2,2-dioxo-9-oxa-2λ^6-thia-3,5,12,19-tetrazatricyclo[12.3.1.14,8]nonadeca-1(18),4(19),5,7,14,16-hexaen-13-one]

EC50 (HBE assay, read-out: HBE EC50): 1 to 3 µM
Emax [3]: > 60%
Structure (SMILES): Cc1cccc(C)c1-c1cc2nc(n1)NS(=O)(=O)c1cccc(c1)C(=O)N(Cc1cccc(N(CC3CCCO3)C(C)C)n1)[C@H](CC(C)(C)C)CO2 (some centres unmarked) [Compound 1445]

activation at 10 µM [4]: > 600%
Structure (SMILES): Cc1cccc(C)c1-c1cc2nc(n1)NS(=O)(=O)c1cccc(c1)C(=O)N(Cc1ccc(N3CCCC3=O)cn1)[C@H](CC(C)(C)C)CO2 [Compound 257]

activation at 10 µM [5]: > 60%
Structure (SMILES): Cc1cccc(C)c1-c1cc2nc(n1)NS(=O)(=O)c1cccc(c1)C(=O)N(Cc1ncc(N3CC(F)C3)cn1)[C@H](CC(C)(C)C)CO2 [Compound 1498]

EC50 (Table 12, read-out: HBE EC50): < 1 µM
Emax [6]: > 60%
Structure (SMILES): Cc1cccc(C)c1-c1cc2nc(n1)NS(=O)(=O)c1cccc(c1)C(=O)N(Cc1ncc(OCC(C)(C)C)cn1)[C@H](CC(C)(C)C)CO2 [Compound 567]

activation at 10 µM [4]: > 600%
Structure (SMILES): Cc1cccc(C)c1-c1cc2nc(n1)NS(=O)(=O)c1cccc(c1)C(=O)N(Cc1ccc(C(C)(C)C)cc1O)[C@H](CC(C)(C)C)CO2 [Compound 433]

activation at 10 µM [5]: > 60%
Structure (SMILES): COCC1(CNc2cncc(CN3C(=O)c4cccc(c4)S(=O)(=O)Nc4nc(cc(-c5c(C)cccc5C)n4)OC[C@H]3CC(C)(C)C)n2)CC1 [Compound 1484]

EC50 (Table 13, read-out: HBE EC50): < 1 µM
Emax [7]: > 60%
Structure (SMILES): Cc1cccc(C)c1-c1cc2nc(n1)NS(=O)(=O)c1cccc(c1)C(=O)N(Cc1cccc(OC(C)C)n1)[C@H](CC(C)(C)C)CO2 [Compound 370]

EC50 (Table 11, read-out: HBE EC50): < 1 µM
Emax [1]: > 60%
Structure (SMILES): Cc1cccc(C)c1-c1cc2nc(n1)NS(=O)(=O)c1cccc(c1)C(=O)N(CC1CN(C(=O)C(C)(C)C)CCO1)[C@H](CC(C)(C)C)CO2 (some centres unmarked) [Compound 714]

activation at 10 µM [8]: > 600%
EC50 (Table 12, read-out: HBE EC50): < 1 µM
Emax [6]: < 30%
Structure (SMILES): Cc1cccc(C)c1-c1cc2nc(n1)NS(=O)(=O)c1cccc(c1)C(=O)N(Cc1ncc(OC(C)C)cn1)[C@H](C(C)C)CO2 [Compound 696]

EC50 (Table 10, read-out: HBE EC50): < 1 µM
Emax [2]: > 60%
Structure (SMILES): Cc1cccc(C)c1-c1cc2nc(n1)NS(=O)(=O)c1cccc(c1)C(=O)N(Cc1cnccc1N1CCOCC1)[C@H](CC(C)(C)C)CO2 [Compound 376]

activation at 10 µM [8]: > 600%
Structure (SMILES): Cc1cccc(C)c1-c1cc2nc(n1)NS(=O)(=O)c1cccc(c1)C(=O)N(Cc1ncc(C3CCOCC3)cc1F)[C@H](CC(C)(C)C)CO2 [Compound 521]

activation at 10 µM [5]: > 60%
Structure (SMILES): Cc1cccc(C)c1-c1cc2nc(n1)NS(=O)(=O)c1cccc(c1)C(=O)N(Cc1ncc(NC(=O)OC(C)C)cn1)[C@H](CC(C)(C)C)CO2 [Compound 1515]

EC50 (Table 11, read-out: HBE EC50): < 1 µM
Structure (SMILES): Cc1cccc(C)c1-c1cc2nc(n1)NS(=O)(=O)c1cccc(c1)C(=O)N(CC1CCN(CCC(C)(C)C)C1=O)[C@H](CC(C)(C)C)CO2 (some centres unmarked) [Compound 653]

EC50 (HBE assay, read-out: HBE EC50): < 1 µM
Emax [3]: > 60%
Structure (SMILES): Cc1cc(NC(C)C)cnc1CN1C(=O)c2cccc(c2)S(=O)(=O)Nc2nc(cc(-c3c(C)cccc3C)n2)OC[C@H]1CC(C)(C)C [Compound 1373]

Structure (SMILES): Cc1cccc(C)c1-c1cc2nc(n1)NS(=O)(=O)c1cccc(c1)C(=O)N(Cc1cncc(N3CCC[C@H]3C3CC3)n1)[C@H](CC1CC1)CO2 [Compound 1502]
EC50 (HBE EC50 (μM), HBE assay): < 1 µM
activation at 10 µM (read-out: HBE Activity at 10 μM (%)): > 60%
Emax (read-out: HBE Max activity (%)): > 60%

activation at 10 µM [4]: > 600%
Structure (SMILES): Cc1cccc(C)c1-c1cc2nc(n1)NS(=O)(=O)c1cccc(c1)C(=O)N(CC(=O)NCc1ccccc1)[C@H](CC(C)(C)C)CO2 [Compound 219]

activation at 10 µM [4]: > 600%
Structure (SMILES): Cc1cccc(C)c1-c1cc2nc(n1)NS(=O)(=O)c1cccc(c1)C(=O)N(Cc1ccc(N3CC4(CCOC4)C3)cn1)[C@H](CC(C)(C)C)CO2 [Compound 1055]

EC50 (Table 11, read-out: HBE EC50): < 1 µM
Emax [1]: > 60%
Structure (SMILES): COC1CCC(CN2C(=O)c3cccc(c3)S(=O)(=O)Nc3nc(cc(-c4c(C)cccc4C)n3)OC[C@H]2CC(C)(C)C)CC1 (some centres unmarked) [Compound 903]

EC50 (Table 13, read-out: HBE EC50): < 1 µM
Structure (SMILES): Cc1cccc(C)c1-c1cc2nc(n1)NS(=O)(=O)c1cccc(c1)C(=O)N(Cc1ccc([C@@H](O)CO)cn1)[C@H](CC(C)(C)C)CO2 [Compound 1150]

EC50 (Table 12, read-out: HBE EC50): < 1 µM
Emax [6]: > 60%
Structure (SMILES): Cc1cccc(C)c1-c1cc2nc(n1)NS(=O)(=O)c1cccc(c1)C(=O)N(Cc1cccc(C3CCCCO3)n1)[C@H](CC(C)(C)C)CO2 (some centres unmarked) [Compound 604]

EC50 (Table 10, read-out: HBE EC50): < 1 µM
Emax [2]: > 60%
Structure (SMILES): Cc1cccc(C)c1-c1cc2nc(n1)NS(=O)(=O)c1cccc(c1)C(=O)N(C[C@H]1CC[C@@H](O)CC1)[C@H](CC(C)(C)C)CO2 (single isomer, unassigned) [Compound 151]

EC50 (HBE assay, read-out: HBE EC50): < 1 µM
Emax [3]: > 60%
Structure (SMILES): CCOc1cnc(CN2C(=O)c3cccc(c3)S(=O)(=O)Nc3nc(cc(-c4c(C)cccc4C)n3)OC[C@H]2CC2CC2)nc1 [Compound 1482]

Emax [2]: > 60%
Structure (SMILES): Cc1cccc(C)c1-c1cc2nc(n1)NS(=O)(=O)c1cccc(c1)C(=O)N(Cc1ccccn1)[C@H](CC(C)(C)C)CO2 [Compound 381]

activation at 10 µM (Table 10, at 10 μM, read-out: HBE activity at 10 (μM) (%)): > 60%
Structure (SMILES): Cc1cccc(C)c1-c1cc2nc(n1)NS(=O)(=O)c1cccc(c1)C(=O)N(Cc1ccccc1-c1csc(OC(C)C)n1)[C@H](CC(C)(C)C)CO2 [Compound 305]

EC50 (HBE assay, read-out: HBE EC50): < 1 µM
Structure (SMILES): CCC(C)Oc1cnc(CN2C(=O)c3cccc(c3)S(=O)(=O)Nc3nc(cc(-c4c(C)cccc4C)n3)OC[C@H]2CC(C)(C)C)nc1 (some centres unmarked) [Compound 1374]

EC50 (Table 10, read-out: HBE EC50): < 1 µM
Emax [2]: > 60%
Structure (SMILES): COc1ccc(CN2C(=O)c3cccc(c3)S(=O)(=O)Nc3nc(cc(-c4c(C)cccc4C)n3)OC[C@H]2CC(C)(C)C)nc1 [Compound 501]

EC50 (HBE assay, read-out: HBE EC50): < 1 µM
Emax [3]: > 60%
Structure (SMILES): COCC1CCC(C)(C)N1c1cncc(CN2C(=O)c3cccc(c3)S(=O)(=O)Nc3nc(cc(-c4c(C)cccc4C)n3)OC[C@H]2CC(C)(C)C)n1 (stereo in doubt) [Compound 1480]

EC50 (Table 13, read-out: HBE EC50): < 1 µM
Emax [7]: > 60%
Structure (SMILES): Cc1cccc(C)c1-c1cc2nc(n1)NS(=O)(=O)c1cccc(c1)C(=O)N(Cc1ncc(C3CC4(CCC4)C3)cn1)[C@H](CC(C)(C)C)CO2 [Compound 160]

activation at 10 µM [4]: > 600%
Structure (SMILES): Cc1cccc(C)c1-c1cc2nc(n1)NS(=O)(=O)c1cccc(c1)C(=O)N(Cc1ccc(C(=O)N3CCOCC3)cn1)[C@H](CC(C)(C)C)CO2 [Compound 245]

activation at 10 µM [8]: > 600%
Structure (SMILES): Cc1cccc(C)c1-c1cc2nc(n1)NS(=O)(=O)c1cccc(c1)C(=O)N(Cc1ncc(N(C)C)c(C)n1)[C@H](CC(C)(C)C)CO2 [Compound 1008]

Structure (SMILES): COCCCN(C)c1cccc(CN2C(=O)c3cccc(c3)S(=O)(=O)Nc3nc(cc(-c4c(C)cccc4C)n3)OC[C@H]2CC(C)(C)C)n1 [Compound 127, (11R)-6-(2,6-Dimethylphenyl)-11-(2,2-dimethylpropyl)-12-[[6-[3-methoxypropyl(methyl)amino]-2-pyridyl]methyl]-2,2-dioxo-9-oxa-2λ^6-thia-3,5,12,19-tetrazatricyclo[12.3.1.14,8]nonadeca-1(18),4(19),5,7,14,16-hexaen-13-one]
EC50 (Table 10, read-out: HBE EC50): < 1 µM
Emax (read-out: HBE Max activity (%)): > 60%

activation at 10 µM [4]: > 600%
Structure (SMILES): Cc1cccc(C)c1-c1cc2nc(n1)NS(=O)(=O)c1cccc(c1)C(=O)N(Cc1cccc(N3CCCC3C(N)=O)n1)[C@H](CC(C)(C)C)CO2 (some centres unmarked) [Compound 539]

EC50 (Table 11, read-out: HBE EC50): < 1 µM
Emax [1]: > 60%
Structure (SMILES): Cc1cccc(C)c1-c1cc2nc(n1)NS(=O)(=O)c1cccc(c1)C(=O)N(Cc1nccc(NCC(C)(C)C)n1)[C@H](CC(C)(C)C)CO2 [Compound 646]

EC50 (Table 13, read-out: HBE EC50): < 1 µM
Emax [7]: > 60%
Structure (SMILES): Cc1cccc(C)c1-c1cc2nc(n1)NS(=O)(=O)c1cccc(c1)C(=O)N(Cc1ncc(N3CC4(CCOC4)C3)cn1)[C@H](CC(C)(C)C)CO2 [Compound 1054]

EC50 (Table 13, read-out: HBE EC50): < 1 µM
Emax [7]: > 60%
Structure (SMILES): Cc1cccc(C)c1-c1cc2nc(n1)NS(=O)(=O)c1cccc(c1)C(=O)N(Cc1nccc(N(C)C3CC(C)(C)C3)n1)[C@H](CC(C)(C)C)CO2 [Compound 436]

EC50 (Table 12, read-out: HBE EC50): < 1 µM
Emax [6]: > 60%
Structure (SMILES): CCC(C)C(CO)N(C)c1cncc(CN2C(=O)c3cccc(c3)S(=O)(=O)Nc3nc(cc(-c4c(C)cccc4C)n3)OC[C@H]2CC(C)(C)C)n1 (some centres unmarked) [Compound 260]
